Assay results reported in the supplement of paper PMC4862054.
Blank lines part the entries; values can stand above or below the molecule they belong to.

Key:
Conditions in all cases: 72 h
HDQ-P1 [1] = test system: HDQ-P1
Outline: (§1)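 For viability, cells received 2.5 µl CellTiter-Blue for 2 h at 37 °C and fluorescence was read at 560/590 nm. Before this, breast cancer cell lines in 20 µl suspension had been incubated for 72 h on 384-well plates pre-loaded with compound dissolved in 5 µl medium. EC50 was obtained from a percent-inhibition dose-response fit censored at the highest concentration, after normalisation of each plate to vehicle and a positive kill control; rows with a zero drug sensitivity score were discarded.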

MDA-MB-453 [2] = test system: MDA-MB-453
Outline: as §1

CAL-85-1 [3] = test system: CAL-85-1
Outline: as §1

SK-BR-3 [4] = test system: SK-BR-3
Outline: as §1

BT-474 [5] = test system: BT-474
Outline: as §1

MDA-MB-468 [6] = test system: MDA-MB-468
Outline: as §1

CAL-51 [7] = test system: CAL-51
Outline: as §1

DU-4475 [8] = test system: DU-4475
Outline: as §1

HCC1143 [9] = test system: HCC1143
Outline: as §1

MDA-MB-231 [10] = test system: MDA-MB-231
Outline: as §1

CAL-120 [11] = test system: CAL-120
Outline: as §1

HCC1599 [12] = test system: HCC1599
Outline: as §1

BT-474 [13] = test system: BT-474; remark: listed apart in the source
Outline: (§2)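 For viability and cell death testing, 384-well plates carried compound at 5 concentrations in 10-fold steps over a compound-specific 10,000-fold range, and breast cancer cell lines were seeded in 20 µl suspension. After 72 h incubation, cell death was read by CellTox Green fluorescence (485/520 nm) before viability was read by CellTiter-Glo luminescence. EC50 was fitted from the dose-response curves and censored at the top concentration. Normalisation on each plate was to 0.1 % DMSO and a positive kill control.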

CAL-51 [14] = test system: CAL-51; remark: listed apart in the source
Outline: as §2

CAL-120 [15] = test system: CAL-120; remark: listed apart in the source
Outline: as §2

MDA-MB-468 [16] = test system: MDA-MB-468; remark: listed apart in the source
Outline: as §2

HCC1937 = test system: HCC1937
Outline: as §1

Hs578T [17] = test system: Hs578T
Outline: as §1

MDA-MB-436 [18] = test system: MDA-MB-436
Outline: as §1

MCF-10A [19] = test system: MCF-10A
Method: (§3)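 Drug sensitivity and resistance testing (DSRT) of breast cancer cell lines in 384-well plates, 5 concentrations in 10-fold dilutions over a compound-specific 10,000-fold range. After 72 h, cytotoxicity was read by CellTox Green fluorescence and viability by CellTiter-Glo luminescence (multiplexed), normalised to DMSO and benzethonium chloride controls. EC50 is the inflection point of the fitted dose-response curve (bottom asymptote free, so it can be relative for partial curves) and is censored at the highest tested concentration. Rows with DSS 0 (no meaningful response) were excluded.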

MDA-MB-231 [20] = test system: MDA-MB-231; remark: listed apart in the source
Method: as §3

CAL-51 [21] = test system: CAL-51; remark: listed apart in the source
Method: as §3

CAL-120 [22] = test system: CAL-120; remark: listed apart in the source
Method: as §3

Hs578T [23] = test system: Hs578T; remark: listed apart in the source
Method: as §3

MFM-223 [24] = test system: MFM-223
Method: as §3

CAL-85-1 [25] = test system: CAL-85-1; remark: listed apart in the source
Method: as §3

CAL-148 [26] = test system: CAL-148
Outline: as §2

SK-BR-3 [27] = test system: SK-BR-3; remark: listed apart in the source
Outline: as §2

HCC1143 [28] = test system: HCC1143; remark: listed apart in the source
Outline: as §2

MCF-10A [29] = test system: MCF-10A; remark: listed apart in the source
Outline: as §2

MDA-MB-231 [30] = test system: MDA-MB-231; remark: listed apart in the source
Outline: as §2

BT-549 [31] = test system: BT-549
Outline: as §2

HDQ-P1 [32] = test system: HDQ-P1; remark: listed apart in the source
Outline: as §2

HCC1599 [33] = test system: HCC1599; remark: listed apart in the source
Outline: as §2

Hs578T [34] = test system: Hs578T; remark: listed apart in the source
Outline: as §2

DU-4475 [35] = test system: DU-4475; remark: listed apart in the source
Outline: as §2

MFM-223 [36] = test system: MFM-223; remark: listed apart in the source
Outline: as §2

MDA-MB-453 [37] = test system: MDA-MB-453; remark: listed apart in the source
Outline: as §2

MDA-MB-436 [38] = test system: MDA-MB-436; remark: listed apart in the source
Outline: as §2

CAL-85-1 [39] = test system: CAL-85-1; remark: listed apart in the source
Outline: as §2

CAL-148 [40] = test system: CAL-148; remark: listed apart in the source
Outline: as §1

BT-549 [41] = test system: BT-549; remark: listed apart in the source
Outline: as §1

MFM-223 [42] = test system: MFM-223; remark: listed apart in the source
Outline: as §1

Compound: CCc1cncnc1N1CCN(Cc2nc3ccc(C(F)(F)F)cc3[nH]2)CC1
EC50, CellTiter-Glo (BT-474 [13]): > 10000 nM
EC50, CellTiter-Glo (CAL-51 [14]): 543 nM
EC50, CellTiter-Glo (CAL-120 [15]): > 10000 nM
EC50, CellTiter-Glo (MDA-MB-468 [16]): 1350 nM

Compound: Cc1cnc(NC(=O)Nc2cc(Br)c(C)cc2OC[C@@H]2CNCCO2)cn1
EC50, CellTiter-Blue viability (HCC1937): 121 nM
EC50, CellTiter-Blue viability (SK-BR-3 [4]): 715 nM
EC50, CellTiter-Blue viability (HCC1599 [12]): 221 nM
EC50, CellTiter-Blue viability (Hs578T [17]): 745 nM
EC50, CellTiter-Blue viability (MDA-MB-436 [18]): 98.7 nM

Compound: NCCCNCCSP(=O)(O)O [Amifostine]
EC50, CellTiter-Blue viability (HCC1599 [12]): 224 nM

Compound: O=C(O)CCCCC(CCSCc1ccccc1)SCc1ccccc1 (stereo unspecified) [CPI-613]
EC50, CellTox Green (CAL-85-1 [25]): > 10000 nM

Compound: O=C(O)C1(C(=O)O)CCC1.[NH2-].[NH2-].[Pt+2] [Carboplatin]
EC50, CellTiter-Blue viability (CAL-148 [40]): 5150 nM
EC50, CellTiter-Blue viability (CAL-51 [7]): 9460 nM
EC50, CellTiter-Blue viability (MDA-MB-453 [2]): 7350 nM
EC50, CellTiter-Blue viability (MFM-223 [42]): 9690 nM

Compound: COc1cc2c(Oc3ccc4[nH]c(C)cc4c3F)ncnc2cc1OCCCN1CCCC1 [Cediranib]
EC50, CellTiter-Glo (MFM-223 [36]): 338 nM

Now from value to molecule, other results behind:

EC50, CellTiter-Blue viability (MDA-MB-453 [2]): 18.5 nM
EC50, CellTiter-Blue viability (SK-BR-3 [4]): 8.82 nM
EC50, CellTiter-Blue viability (BT-474 [5]): 14.7 nM
EC50, CellTiter-Blue viability (MDA-MB-468 [6]): 71.1 nM
Compound: C=CC(=O)N1CCC[C@@H](n2nc(-c3ccc(Oc4ccccc4)cc3)c3c(N)ncnc32)C1
EC50, CellTiter-Blue viability (HDQ-P1 [1]): 407 nM
EC50, CellTiter-Blue viability (CAL-85-1 [3]): 849 nM

EC50, CellTiter-Blue viability (MDA-MB-453 [2]): 20.2 nM
EC50, CellTiter-Blue viability (HCC1143 [9]): 2.92 nM
EC50, CellTiter-Blue viability (MDA-MB-231 [10]): 1.8 nM
EC50, CellTiter-Blue viability (HCC1599 [12]): 31.5 nM
EC50, CellTiter-Blue viability (MDA-MB-468 [6]): 35.7 nM
Compound: CC(=O)Nc1cccc(-n2c(=O)n(C3CC3)c(=O)c3c(Nc4ccc(I)cc4F)n(C)c(=O)c(C)c32)c1
EC50, CellTiter-Blue viability (CAL-51 [7]): 9.94 nM
EC50, CellTiter-Blue viability (HDQ-P1 [1]): 4.17 nM
EC50, CellTiter-Blue viability (DU-4475 [8]): 0.91 nM
EC50, CellTiter-Blue viability (CAL-85-1 [3]): 19.4 nM
EC50, CellTiter-Blue viability (CAL-120 [11]): 20.6 nM

EC50, CellTiter-Glo (SK-BR-3 [27]): 2.39 nM
EC50, CellTiter-Glo (HCC1143 [28]): 6.01 nM
EC50, CellTiter-Glo (MDA-MB-231 [30]): 2.75 nM
EC50, CellTiter-Glo (BT-474 [13]): 6.44 nM
EC50, CellTiter-Glo (BT-549 [31]): 4.82 nM
EC50, CellTiter-Glo (HCC1599 [33]): 37.2 nM
EC50, CellTiter-Glo (MDA-MB-453 [37]): 2.55 nM
EC50, CellTiter-Glo (MDA-MB-436 [38]): 2.44 nM
EC50, CellTiter-Glo (MDA-MB-468 [16]): 2.04 nM
EC50, CellTiter-Blue viability (MDA-MB-453 [2]): 2.09 nM
EC50, CellTiter-Blue viability (HCC1937): 3.79 nM
EC50, CellTiter-Blue viability (SK-BR-3 [4]): 2.63 nM
EC50, CellTiter-Blue viability (HCC1143 [9]): 6.32 nM
EC50, CellTiter-Blue viability (MDA-MB-231 [10]): 5.71 nM
EC50, CellTiter-Blue viability (BT-549 [41]): 1.56 nM
EC50, CellTiter-Blue viability (MDA-MB-436 [18]): 3.72 nM
EC50, CellTiter-Blue viability (MDA-MB-468 [6]): 3.48 nM
Compound: CC[C@@H]1C(=O)N(C)c2cnc(Nc3ccc(C(=O)NC4CCN(C)CC4)cc3OC)nc2N1C1CCCC1 [BI 2536]
EC50, CellTox Green (MCF-10A [19]): 2.65 nM
EC50, CellTox Green (MDA-MB-231 [20]): 2.26 nM
EC50, CellTox Green (CAL-51 [21]): 5.72 nM
EC50, CellTox Green (CAL-120 [22]): 120 nM
EC50, CellTox Green (Hs578T [23]): 419 nM
EC50, CellTox Green (MFM-223 [24]): 2.41 nM
EC50, CellTox Green (CAL-85-1 [25]): 24.1 nM
EC50, CellTiter-Glo (CAL-148 [26]): 3.14 nM
EC50, CellTiter-Glo (MCF-10A [29]): 34 nM
EC50, CellTiter-Glo (CAL-51 [14]): 10.9 nM
EC50, CellTiter-Glo (CAL-120 [15]): 5.9 nM
EC50, CellTiter-Glo (HDQ-P1 [32]): 21.4 nM
EC50, CellTiter-Glo (Hs578T [34]): 31.6 nM
EC50, CellTiter-Glo (DU-4475 [35]): 10.2 nM
EC50, CellTiter-Glo (MFM-223 [36]): 2.27 nM
EC50, CellTiter-Glo (CAL-85-1 [39]): 2.42 nM
EC50, CellTiter-Blue viability (CAL-148 [40]): 4.74 nM
EC50, CellTiter-Blue viability (CAL-51 [7]): 12.5 nM
EC50, CellTiter-Blue viability (HDQ-P1 [1]): > 1000 nM
EC50, CellTiter-Blue viability (DU-4475 [8]): 6.01 nM
EC50, CellTiter-Blue viability (CAL-85-1 [3]): 2.85 nM
EC50, CellTiter-Blue viability (CAL-120 [11]): 3.52 nM
EC50, CellTiter-Blue viability (Hs578T [17]): 10.5 nM
EC50, CellTiter-Blue viability (MFM-223 [42]): 1.57 nM

EC50, CellTiter-Blue viability (MDA-MB-453 [2]): 2180 nM
EC50, CellTiter-Blue viability (SK-BR-3 [4]): 2160 nM
EC50, CellTiter-Blue viability (HCC1143 [9]): 2280 nM
EC50, CellTiter-Blue viability (BT-549 [41]): 2240 nM
EC50, CellTiter-Blue viability (HCC1599 [12]): 94.2 nM
EC50, CellTiter-Blue viability (MDA-MB-468 [6]): 2380 nM
Compound: CC[C@H](Nc1ncnc2[nH]cnc12)c1nc2cccc(F)c2c(=O)n1-c1ccccc1 [CAL-101]
EC50, CellTiter-Blue viability (HDQ-P1 [1]): 5250 nM
EC50, CellTiter-Blue viability (DU-4475 [8]): 5560 nM
EC50, CellTiter-Blue viability (CAL-120 [11]): 8280 nM

EC50, CellTiter-Blue viability (MDA-MB-453 [2]): 7690 nM
EC50, CellTiter-Blue viability (HCC1937): 329 nM
EC50, CellTiter-Blue viability (MDA-MB-436 [18]): 183 nM
Compound: Cc1ccc(-c2cc(C(F)(F)F)nn2-c2ccc(S(N)(=O)=O)cc2)cc1 [Celecoxib]
EC50, CellTiter-Blue viability (HDQ-P1 [1]): 67.5 nM
